Results on six molecules are retold here after ChEMBL document CHEMBL1144124, “New cytotoxic 1-azaanthraquinones and 3-aminonaphthoquinone from the stem bark of Goniothalamus marcanii” (1999).

Type in all cases: functional
One assay deals with A549. Description: Cytotoxicity against human A549 cells after 48 hrs by SRB assay. The conditions noted are these: A549, 48 h, read-out: ED50 (the source's name). (In general: In SRB staining, fixed cells bind dye roughly in proportion to their protein.)
The subject of another assay is HT-29. The experiment in a line: Cytotoxicity against human HT-29 cells after 48 hrs by SRB assay. The conditions noted are these: HT-29, 48 h, read-out: ED50 (the source's name).
Another assay deals with MCF7. The experiment in a line: Cytotoxicity against human MCF7 cells after 48 hrs by SRB assay. The conditions noted are these: MCF7, 48 h, read-out: ED50 (the source's name).
A short description of assay [1]: Cytotoxicity against human RPMI cells after 48 hrs by SRB assay. The conditions noted are these: read-out: ED50 (the source's name).
A further assay deals with U-251. Description: Cytotoxicity against human U251 cells after 48 hrs by SRB assay. The conditions noted are these: U-251, 48 h, read-out: ED50 (the source's name).

In the case of `COc1c(CO)c2c(n(C)c1=O)C(=O)c1ccccc1C2=O` [MARCANINE C], the EC50 in the assay on A549 is 1000 nM; with HT-29, 330 nM; with MCF7, 1000 nM; in assay [1], 670 nM.

For `COc1c(C)c2c([nH]c1=O)C(=O)c1ccccc1C2=O` [DIELSIQUINONE], the EC50 amounted to 110 nM with A549; 1120 nM in the assay with HT-29; 110 nM in the assay on MCF7; 110 nM in assay [1]; 370 nM in the assay on U-251.

As for `CC(=O)C1=C(N)C(=O)c2c(O)cccc2C1=O`, the EC50 was 2600 nM in the assay on A549, 2600 nM in the assay on MCF7, 3030 nM in assay [1] and 3030 nM in the assay with U-251.

Turning to `Cc1cc(=O)[nH]c2c1C(=O)c1ccccc1C2=O` [MARCANIN A], the EC50 with A549 came out at 420 nM; in the assay on HT-29, 420 nM; in the assay with MCF7, 420 nM; in assay [1], 420 nM; in the assay with U-251, 840 nM.

As for `COc1c(C)c2c(n(C)c1=O)C(=O)c1ccccc1C2=O` [MARCANIN B], the EC50 with A549 is 350 nM; in the assay with HT-29 it was 2120 nM; in the assay on MCF7 it was 180 nM; in assay [1], 700 nM; in the assay on U-251 it was 1400 nM.

As to `COc1c(C)c2c([nH]c1=O)C(=O)c1cccc(O)c1C2=O` [MARCANINE D], the EC50 in the assay on A549 turned out to be 40 nM; in the assay with HT-29, 350 nM; in the assay with MCF7, 80 nM; in assay [1] it was 80 nM; in the assay with U-251, 280 nM.
